In article PMC6310865 (Proceedings of the National Academy of Sciences of the …, 2018):

System: CD4+ T cells
Assay type: cell-based, human
Conditions: all cases versus controls; […]

| Substance | Tetramer-positive CD4+ T cells in T1N cases versus DQ0602 controls |
| --- | --- |
| NP17–31: nucleoprotein epitope, PR8 specific (GERQNATEIRASVGK) | significant overabundance |
| NP261–275: nucleoprotein epitope shared between A/California/07/2009 and PR8 (RSALILRGSVAHKSC; UniProt P03466 261-275, looked up, fragment) | little to no significant differences |
